Assay results published in ChEMBL document CHEMBL1649244, “Horizontal transfer of tetracycline resistance among Chlamydia spp. in vitro” (2009).
Values after ≈ are worked out from the molar mass of the structure shown.

What was measured:
Assay type in all cases: functional
[1] = tested on: Chlamydia trachomatis; test: Antimicrobial activity against Chlamydia trachomatis L2/oflR harboring ompA gene
[2] = tested on: Chlamydia suis; test: Antimicrobial activity against Chlamydia suis S45/rifR harboring rpoB gene
[3] = tested on: Chlamydia trachomatis; test: Antimicrobial activity against Chlamydia trachomatis J/6276/rifR harboring ompA and rpoB genes
[4] = tested on: Chlamydia muridarum; test: Antimicrobial activity against Chlamydia muridarum MoPn/oflR harboring ompA gene
[5] = tested on: Chlamydia trachomatis; test: Antimicrobial activity against Chlamydia trachomatis L2/oflR-rifR1 harboring ompA and rpoB genes
[6] = tested on: Chlamydia suis; test: Antimicrobial activity against Chlamydia suis R19/tetR harboring tet(C) allele
[7] = tested on: Chlamydia muridarum; test: Antimicrobial activity against Chlamydia muridarum MoPn/rifRoflR harboring ompA and rpoB genes
[8] = tested on: Chlamydia trachomatis; test: Antimicrobial activity against Chlamydia trachomatis L2/tetR13 harboring tet(C) allele
[9] = tested on: Chlamydia trachomatis; test: Antimicrobial activity against Chlamydia trachomatis J/6276/tetR harboring tet(C) allele
[10] = tested on: Chlamydia trachomatis; test: Antimicrobial activity against Chlamydia trachomatis F/70/rifR harboring rpoB gene
[11] = tested on: Chlamydophila caviae; test: Antimicrobial activity against Chlamydophila caviae GPIC/rifR harboring rpoB gene; conditions: Chlamydia caviae
[12] = tested on: Chlamydia trachomatis; test: Antimicrobial activity against Chlamydia trachomatis L2/oflR-rifR2 harboring […] and rpoB genes
[13] = tested on: Chlamydia trachomatis; test: Antimicrobial activity against Chlamydia trachomatis J/6276/oflR-rifR1 harboring ompA and rpoB genes
[14] = tested on: Chlamydia muridarum; test: Antimicrobial activity against Chlamydia muridarum MoPn/oflR-rifR harboring ompA and rpoB genes
[15] = tested on: Chlamydia trachomatis; test: Antimicrobial activity against Chlamydia trachomatis J/6276/oflR-rifR2 harboring ompA and rpoB genes
[16] = tested on: Chlamydia trachomatis; test: Antimicrobial activity against Chlamydia trachomatis L2/tetR1 harboring tet(C) allele
[17] = tested on: Chlamydia muridarum; test: Antimicrobial activity against Chlamydia muridarum MoPn/tetR14 harboring tet(C) allele
[18] = tested on: Chlamydia muridarum; test: Antimicrobial activity against Chlamydia muridarum MoPn/tetR1 harboring tet(C) allele
[19] = tested on: Chlamydia trachomatis; test: Antimicrobial activity against Chlamydia trachomatis F/70/rifR-tetR harboring rpoB gene and tet(C) allele

Compound	MIC [1]	MIC [2]	MIC [3]	MIC [4]	MIC [5]	MIC [6]	MIC [7]	MIC [8]	MIC [9]	MIC [10]	MIC [11]	MIC [12]	MIC [13]	MIC [14]	MIC [15]	MIC [16]	MIC [17]	MIC [18]	MIC [19]
CC1COc2c(N3CCN(C)CC3)c(F)cc3c(=O)c(C(=O)O)cn1c23 (configuration not stated) [OFLOXACIN]	16 µg/mL (≈ 44.3 µM)	0.5 µg/mL (≈ 1.38 µM)	0.5 µg/mL (≈ 1.38 µM)	32 µg/mL (≈ 88.6 µM)	16 µg/mL (≈ 44.3 µM)	0.5 µg/mL (≈ 1.38 µM)	32 µg/mL (≈ 88.6 µM)	16 µg/mL (≈ 44.3 µM)	0.5 µg/mL (≈ 1.38 µM)	0.5 µg/mL (≈ 1.38 µM)	0.5 µg/mL (≈ 1.38 µM)	16 µg/mL (≈ 44.3 µM)	16 µg/mL (≈ 44.3 µM)	32 µg/mL (≈ 88.6 µM)	32 µg/mL (≈ 88.6 µM)	16 µg/mL (≈ 44.3 µM)	32 µg/mL (≈ 88.6 µM)	32 µg/mL (≈ 88.6 µM)	0.5 µg/mL (≈ 1.38 µM)
CO[C@H]1/C=C/O[C@@]2(C)Oc3c(C)c(O)c4c(O)c(c(/C=N/N5CCN(C)CC5)c(O)c4c3C2=O)NC(=O)/C(C)=C\C=C\[C@H](C)[C@H](O)[C@@H](C)[C@@H](O)[C@@H](C)[C@H](OC(C)=O)[C@@H]1C [RIFAMPIN]	0.004 µg/mL (≈ 0.00486 µM)	0.25 µg/mL (≈ 0.304 µM)	0.004 µg/mL (≈ 0.00486 µM)	0.008 µg/mL (≈ 0.00972 µM)	128 µg/mL (≈ 156 µM)	0.004 µg/mL (≈ 0.00486 µM)	128 µg/mL (≈ 156 µM)	0.004 µg/mL (≈ 0.00486 µM)	8 µg/mL (≈ 9.72 µM)	32 µg/mL (≈ 38.9 µM)	16 µg/mL (≈ 19.4 µM)	0.25 µg/mL (≈ 0.304 µM)	8 µg/mL (≈ 9.72 µM)	0.25 µg/mL (≈ 0.304 µM)	8 µg/mL (≈ 9.72 µM)	128 µg/mL (≈ 156 µM)	128 µg/mL (≈ 156 µM)	0.008 µg/mL (≈ 0.00972 µM)	32 µg/mL (≈ 38.9 µM)
CN(C)[C@@H]1C(O)=C(C(N)=O)C(=O)[C@@]2(O)C(O)=C3C(=O)c4c(O)cccc4[C@@](C)(O)[C@H]3C[C@@H]12 [TETRACYCLINE]	0.032 µg/mL (≈ 0.072 µM)	0.032 µg/mL (≈ 0.072 µM)	0.032 µg/mL (≈ 0.072 µM)	0.032 µg/mL (≈ 0.072 µM)	0.008 µg/mL (≈ 0.018 µM)	8 µg/mL (≈ 18 µM)	0.008 µg/mL (≈ 0.018 µM)	8 µg/mL (≈ 18 µM)	8 µg/mL (≈ 18 µM)	0.032 µg/mL (≈ 0.072 µM)	0.032 µg/mL (≈ 0.072 µM)	0.032 µg/mL (≈ 0.072 µM)	0.032 µg/mL (≈ 0.072 µM)	0.032 µg/mL (≈ 0.072 µM)	0.032 µg/mL (≈ 0.072 µM)	8 µg/mL (≈ 18 µM)	8 µg/mL (≈ 18 µM)	8 µg/mL (≈ 18 µM)	8 µg/mL (≈ 18 µM)
